The record followed here is patent publication US8754038B2, “Template-fixed peptidomimetics with CCR10 antagonistic activity” (priority 2009, dated 2014).

Numbered stars: 1 amine (or outer) side, 2 acyl side, 3 side chain; on linkers, the order of the positions; unused ones are H or OH. Square brackets hold non-standard residues; d marks the D form. Peptide text beside a SMILES is read from it. * marks the point of attachment. X4 = N#Cc1cccc(C[C@@H]2C[C@@H](C(=O)[*:2])N([*:1])C2)c1; Pro(trans-4-cHex) = O=C(O)[C@@H]1C[C@@H](C2CCCCC2)CN1; X7 = O=C([C@H](CCNCc1c[nH]cn1)N[*:1])[*:2]; Oic = O=C(O)[C@@H]1C[C@@H]2CCCC[C@@H]2N1; Phe(4-CN) = N#Cc1ccc(C[C@H](N)C(=O)O)cc1; Phe(4-F) = N[C@@H](Cc1ccc(F)cc1)C(=O)O; Hyp = O=C(O)[C@@H]1C[C@@H](O)CN1; Benzyl(4-Br) = Brc1ccc(C*)cc1; Thz = O=C(O)[C@@H]1CSCN1; Ac5c = NC1(C(=O)O)CCCC1; Dab = NCC[C@H](N)C(=O)O; Bn = c1ccc(C*)cc1

A word on the IC50: it is the concentration at which inhibition is half-maximal.

Experiment [1] addresses T1, human CCR10 (Homo sapiens, UniProt P46092).
T1 construct: expressed in transfected cells
T1 sequence (P46092 1-362): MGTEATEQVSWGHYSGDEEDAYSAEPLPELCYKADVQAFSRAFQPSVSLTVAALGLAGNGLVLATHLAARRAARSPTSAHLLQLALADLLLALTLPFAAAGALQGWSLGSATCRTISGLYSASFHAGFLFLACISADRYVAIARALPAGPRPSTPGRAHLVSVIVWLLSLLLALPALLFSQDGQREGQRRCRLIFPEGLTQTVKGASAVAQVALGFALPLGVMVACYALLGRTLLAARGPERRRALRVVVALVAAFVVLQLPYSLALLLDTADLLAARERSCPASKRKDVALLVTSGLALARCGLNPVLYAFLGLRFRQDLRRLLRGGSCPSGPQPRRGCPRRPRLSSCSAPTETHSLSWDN
In words: Chemotaxis assay (CCR10-transfected 300-19 cells, CCL27 gradient). It is filed as cell-based. The following applies: CCR10-transfected 300-19 murine pre-B cells; 30 nM CCL27 gradient. How it is done: (§1) Lyophilized peptides were weighed on a Microbalance (Mettler MX5) and dissolved in aqueous 90% DMSO to a final concentration of 10 mM unless otherwise stated. Stock solutions were kept at +4° C., and protected from light.
(§2) Peptides were assayed for CCR10 antagonism in a calcium flux assay and in a chemotaxis assay using a mouse pre-B cell line 300-19 stably transfected with human CCR10, and with human CCL27 as agonist.
The chemotactic response of CCR10-transfected 300-19 murine pre-B cells to a gradient of CCL27 (CTACK) was measured using disposable Transwell® assay plates from Costar (5 μm pore size) according to the protocol of the manufacturer. Briefly, cells were grown under sterile conditions at 37° C. with 5% CO2 in flasks containing RPMI+5% FCS, glutamine, penicillin/streptomycin (all media components were from Life Technologies) and the appropriate selection antibiotics (Puromycin, G418 or Tetracycline). For the assay, cells were pelleted by centrifugation, washed once in Dulbecco's phosphate buffered saline (DPBS), and resuspended to give 1×10^6 cells/ml in RPMI+0.5% bovine serum albumin (BSA). 100 μl of cell suspension was applied to the top of the assay filter. The β-hairpin peptidomimetics, diluted in the same assay medium, were added to both top and bottom chambers. The cells were allowed to migrate for 4-6 hours at 37° C. into the bottom chamber of the assay plate containing 30 nM of CCL27 (RnD systems). Migrated cells were counted using a FACS cytometer (Cytomics FC500, Beckman Coulter). Data normalization was performed using the number of any cells that had migrated in the absence of the β-hairpin peptidomimetic and the number of cells that have randomly migrated in absence of CCL27 [these values were taken as 100% (no inhibitory activity) and 0%, respectively]. From a range of compound concentrations IC50 were determined using Prism5 (GraphPad software).

Experiment [2] deals with T1, human CCR10. In words: Calcium flux assay (CCR10 antagonism, CCL27 as agonist). Type of experiment: cell-based. The following applies: CCR10 transfected 300-19 murine pre-B cells; CCL27 30 nM. How it is done: as §1, §2
The calcium flux release was assessed using CCR10 transfected 300-19 murine pre-B cells. These cells were labeled as a batch with Calcium4 Reagent (Molecular Devices, Sunnyvale, Calif.) in HBSS buffer for 60 min.
After dispensing 8×10^4 cells in each well of a 384-well black plate, a concentrated solution of the β-hairpin peptidomimetics of this invention in HBSS+0.1% BSA+0.1% DMSO (final concentration) was added to the cells. The entire plate was centrifuged and placed in a Flexstation II (Molecular Devices) automated plate reader. After reading a 20 s baseline, the Flexstation dispensed CCL27 (RnD systems) at a final concentration of 30 nM in HBSS+0.1% BSA onto the cells and calcium flux was measured for an additional 70 s.
Alternatively a FIipR384 (Molecular Devices) was used for read out of the 384-well plates. In this case about 8×10^4 cells were placed in each well, centrifuged, placed in the FlipR and after 5 s of baseline reading, the β-hairpin peptidomimetics in HBSS+0.1% BSA+0.1% DMSO (final concentration) were added. After an incubation time of 5 min, the CCL27 solution was added to the mixture and the calcium flux was measured for 200 s.
The maximum signal was determined from control wells without inhibitor. Percentage of inhibition was calculated from a range of compound concentrations, which were subsequently used to calculate IC50 values (Softmax Pro, Molecular Devices). All steps were carried out at room temperature.

`N#Cc1ccc(C[C@@H]2NC(=O)[C@@H]3C[C@@H](OCc4ccccc4)CN3C(=O)[C@H]3CCCN3C(=O)[C@H](CO)NC(=O)[C@H](Cc3ccc(F)cc3)NC(=O)C3(CCCC3)NC2=O)cc1` [compound 44, cyclo(-Phe(4CN)-Cyp-Phe(4F)-Ser-^DPro-Hyp(Bn)-)] (cyclo([Ac5c][Phe(4-F)]S[dP][Hyp](Bn)[Phe(4-CN)])): the IC50 in experiment [1] turned out to be 13.5 nM; in experiment [2], 1.9 ± 2.1 nM.

Regarding `NCC[C@@H]1NC(=O)[C@H](Cc2c[nH]c3ccccc23)NC(=O)C2(CCCC2)NC(=O)[C@H](Cc2c[nH]c3ccccc23)NC(=O)[C@@H]2C[C@@H](OCc3ccccc3)CN2C(=O)[C@H]2CCCN2C1=O` [compound 45, cyclo(-Trp-Cyp-Trp-Dab-^DPro-Hyp(Bn)-)] (cyclo([Ac5c]W[Dab][dP][Hyp](Bn)W)), the IC50 amounted to 14 nM in experiment [1] and 65.8 ± 19.6 nM in experiment [2].

As to `O=C1NC2(CCCC2)C(=O)N[C@@H](Cc2c[nH]c3ccccc23)C(=O)N[C@@H](CO)C(=O)N2CCC[C@@H]2C(=O)N2C[C@H](OCc3ccccc3)C[C@H]2C(=O)N[C@H]1Cc1c[nH]c2ccccc12` [compound 46, cyclo(-Trp-Cyp-Trp-Ser-^DPro-Hyp(Bn)-)] (cyclo([Ac5c]WS[dP][Hyp](Bn)W)), the concentration for half-maximal inhibition (IC50) in experiment [1] amounted to 35.4 nM; in experiment [2], 12.6 ± 9 nM.

As for `N#Cc1ccc(C[C@@H]2NC(=O)[C@@H]3C[C@@H](OCc4ccc(Br)cc4)CN3C(=O)[C@H]3CCCN3C(=O)[C@H](CO)NC(=O)[C@H](Cc3c[nH]c4ccccc34)NC(=O)C3(CCCC3)NC2=O)cc1` [compound 55, cyclo(-Phe(4CN)-Cyp-Trp-Ser-^DPro-Hyp(4BrBn)-)] (cyclo([Ac5c]WS[dP][Hyp](Benzyl(4-Br))[Phe(4-CN)])), the IC50 in experiment [1] was 0.6 nM; in experiment [2] it was 5.3 ± 3.9 nM.

Turning to `NCC[C@@H]1NC(=O)[C@H](Cc2c[nH]c3ccccc23)NC(=O)C2(CCCC2)NC(=O)[C@H](Cc2c[nH]c3ccccc23)NC(=O)[C@@H]2C[C@@H](C3CCCCC3)CN2C(=O)[C@H]2CCCN2C1=O` [compound 41, cyclo(-Trp-Cyp-Trp-Dab-^DPro-Pro((4S)cHex)-)] (cyclo([Ac5c]W[Dab][dP][Pro(trans-4-cHex)]W)), the IC50 in experiment [1] came to 140 nM; in experiment [2], 54.3 ± 22 nM.

On to `N#Cc1cccc(C[C@@H]2C[C@H]3C(=O)N[C@@H](Cc4c[nH]c5ccccc45)C(=O)NC4(CCCC4)C(=O)N[C@@H](Cc4c[nH]c5ccccc45)C(=O)N[C@@H](CCN)C(=O)N4CCC[C@@H]4C(=O)N3C2)c1` [compound 40, cyclo(-Trp-Cyp-Trp-Dab-^DPro-Pro((4R)3CNBn)-)] (cyclo([Ac5c]W[Dab][dP][X4]W)), for which the half-maximal inhibitory concentration (IC50) came to 3.8 nM in experiment [1] and 27.9 ± 10.5 nM in experiment [2].

For the compound `O=C1NC2(CCCC2)C(=O)N[C@@H](Cc2c[nH]c3ccccc23)C(=O)N[C@@H](CCNCc2c[nH]cn2)C(=O)N2CCC[C@@H]2C(=O)N2[C@@H](C[C@@H]3CCCC[C@@H]32)C(=O)N[C@H]1Cc1c[nH]c2ccccc12` [Ex. 106, cyclo(-Trp-Cyp-Trp-Dab(A55)-^DPro-Oic-)] (cyclo([Ac5c]W[X7][dP][Oic]W)), the values for the IC50 in experiment [1] and in experiment [2] were 4.8 nM and 12.2 ± 3.8 nM, respectively.

In the case of `NCC[C@@H]1NC(=O)[C@H](Cc2c[nH]c3ccccc23)NC(=O)C2(CCCC2)NC(=O)[C@H](Cc2c[nH]c3ccccc23)NC(=O)[C@@H]2CSCN2C(=O)[C@H]2CCCN2C1=O` [compound 6, cyclo(-Trp-Cyp-Trp-Dab-^DPro-Thz-)] (cyclo([Ac5c]W[Dab][dP][Thz]W)), the IC50 is 19.6 nM in experiment [1] and 134 ± 73.3 nM in experiment [2].
